Tested on: Murine preadipocytes (3T3-L1)
Test: Fat accumulation in 3T3-L1 preadipocytes during induced differentiation (Triglyceride E-test)
Format: cell-based
Conditions: 3T3-L1, differentiation-inducing medium with test compound, seven days; stated in words, numbers only in FIG. 7
Procedure: Murine preadipocytes (3T3-L1) have such a property as to accumulate fat following differentiation. In the present test, while differentiation of 313-L1 preadipocytes was induced by insulin and the like, test compounds were simultaneously added. Then, an amount of fat in the cells was measured to evaluate that the test compounds exert inhibition of differentiation of the preadipocytes or an inhibitory effect on fat accumulation following differentiation. In this test, in a case where cells die due to the test compounds, there is concern that the test might unintentionally result in a low fat accumulation rate, which is seemingly a favorable result. […] Also, fat accumulation was observed under a microscope from time to time during the test.
Preadipocytes (3T3-L1) were cultured to confluence in the presence of 5% CO2 at 37° C. for two days in 150 μL of culture media (DMEM containing 10% fetal bovine serum (glucose concentration of […])) in two 96-well microplates. Then, with respect to both plates, the culture media were aspirated and replaced with 150 μL of differentiation-inducing media containing a certain concentration of test compounds (DMEM containing 10% fetal bovine serum (glucose concentration of […]) in which 1 μM dexamethasone, 10 μg/mL insulin, and 0.5 mM 3-isobutyl-1-methylxanthine were dissolved). Normally, methanol solution containing a 200-fold concentration of test compounds (1a, 1b, 1c, 1d, and 1e) was prepared, and 7.5 μL of the solution was added with respect to 1.5 mL of the differentiation-inducing media. At this time, a well that was not replaced with the differentiation-inducing medium and a well to which only methanol was added instead of a sample solution were prepared as a control. The plates were cultured in the presence of 5% CO2 at 37° C. for seven days. Thereafter, one plate was served for measurement of an amount of fat, and the other plate was served for measurement of a survival rate.
To each well of the plate for measurement of an amount of fat, 10 μL of 2% Triton X-100 was added, and the plate was left to stand for 30 minutes. Subsequently, the plate was sealed with a sealing tape (a product of Asahi Techno Glass Corporation) and sonicated for one minute in an ultrasonic cleaner. Subsequently, 20 μL of solution was collected from each well and added to a 96-well microplate in which 150 μL of Triglyceride E-test Wako (a product of Wako Pure Chemical Industries, Ltd.), a coloring reagent, had been added to each well, and then the plate was incubated at 37° C. for 30 minutes, after which absorbance (at 630 nm, control at 690 nm) was measured by a plate reader. A ratio of absorbance in a compound-added group to absorbance in a compound-free group was obtained as a percentage, which was provided as a fat accumulation rate. Fat accumulation rates with respect to a concentration in each sample were represented as a semilogarithmic graph. From this graph a compound concentration at which a fat accumulation rate was 50% was read off, which was provided as a 50% effective concentration (EC50). It can be interpreted that the smaller the EC50 value is, the stronger the inhibitory effect on differentiation of adipocytes or on fat accumulation in adipocytes is.

Structure (SMILES)	EC50 (compound concentration at which the fat accumulation rate is 50%); inhibitory effect on differentiation of adipocytes or on fat accumulation
CC[C@H](C)[C@H]1NC(=O)[C@@H](C)NC(=O)[C@@H](C)N(C)C(=O)[C@H](C)N(C)C(=O)[C@H](CC(C)C)NC(=O)[C@H](CC(C)C)N(C)C(=O)[C@H](C)N(C)C1=O [1a]	excellently exerts an inhibitory effect on differentiation of adipocytes or on fat accumulation in adipocytes
CC[C@H](C)[C@H]1NC(=O)[C@@H]([C@H](C)O)NC(=O)[C@@H](C)N(C)C(=O)[C@H](C)N(C)C(=O)[C@H](CC(C)C)NC(=O)[C@H](CC(C)C)N(C)C(=O)[C@H](C)N(C)C1=O [1d]	excellently exerts an inhibitory effect on differentiation of adipocytes or on fat accumulation in adipocytes
CC[C@H](C)[C@H]1NC(=O)[C@@H](CC(C)C)NC(=O)[C@@H](C)N(C)C(=O)[C@H](C)N(C)C(=O)[C@H](CC(C)C)NC(=O)[C@H](CC(C)C)N(C)C(=O)[C@H](C)N(C)C1=O [1b]	excellently exerts an inhibitory effect on differentiation of adipocytes or on fat accumulation in adipocytes
CC[C@H](C)[C@H]1NC(=O)[C@@H](COCc2ccccc2)NC(=O)[C@@H](C)N(C)C(=O)[C@H](C)N(C)C(=O)[C@H](CC(C)C)NC(=O)[C@H](CC(C)C)N(C)C(=O)[C@H](C)N(C)C1=O [1c]	excellently exerts an inhibitory effect on differentiation of adipocytes or on fat accumulation in adipocytes
CC[C@H](C)[C@H]1NC(=O)[C@@H](CO)NC(=O)[C@@H](C)N(C)C(=O)[C@H](C)N(C)C(=O)[C@H](CC(C)C)NC(=O)[C@H](CC(C)C)N(C)C(=O)[C@H](C)N(C)C1=O [1e]	excellently exerts an inhibitory effect on differentiation of adipocytes or on fat accumulation in adipocytes
